# Measured values as given in the supplement of paper PMC10307832.
# How the values were obtained:
# Test in all cases: relative viability (nuclei count vs DMSO), 5 days (fraction); higher = more cells survive
# Ispinesib + Dasatinib = compound: Cc1ccc(C(=O)N(CCCN)[C@@H](c2nc3cc(Cl)ccc3c(=O)n2Cc2ccccc2)C(C)C)cc1 [Ispinesib] + Cc1nc(Nc2ncc(C(=O)Nc3c(C)cccc3Cl)s2)cc(N2CCN(CCO)CC2)n1 [Dasatinib] (partner 0.075 µM)
# Method in brief: (§1)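 Relative viability is defined as nuclei in treated wells over nuclei in vehicle wells. Duplicate plates were run and medians reported. Lung cancer cell lines in 1536-well plates were dosed by pin tool one day after seeding, with one drug or with a fixed anchor-drug dose plus five library-drug doses (not always all listed) in √10 steps, and nuclei were counted after 5 days.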
# Ispinesib + Olaparib = compound: Cc1ccc(C(=O)N(CCCN)[C@@H](c2nc3cc(Cl)ccc3c(=O)n2Cc2ccccc2)C(C)C)cc1 [Ispinesib] + O=C(c1cc(Cc2n[nH]c(=O)c3ccccc23)ccc1F)N1CCN(C(=O)C2CC2)CC1 [Olaparib] (partner 8 µM)
# Method in brief: as §1
# Ispinesib + Trametinib = compound: Cc1ccc(C(=O)N(CCCN)[C@@H](c2nc3cc(Cl)ccc3c(=O)n2Cc2ccccc2)C(C)C)cc1 [Ispinesib] + CC(=O)Nc1cccc(-n2c(=O)n(C3CC3)c(=O)c3c(Nc4ccc(I)cc4F)n(C)c(=O)c(C)c32)c1 [Trametinib] (partner 0.02 µM)
# Method in brief: as §1
# Linsitinib + OSI-027 = compound: C[C@]1(O)C[C@@H](c2nc(-c3ccc4ccc(-c5ccccc5)nc4c3)c3c(N)nccn32)C1 [Linsitinib] + COc1cccc2cc(-c3nc([C@H]4CC[C@H](C(=O)O)CC4)n4ncnc(N)c34)[nH]c12 [OSI-027] (partner 0.5 µM)
# Method in brief: as §1
Cell Line,relative viability (Ispinesib + Dasatinib; first compound 0.001 µM),relative viability (Ispinesib + Dasatinib; first compound 0.003162 µM),relative viability (Ispinesib + Dasatinib; first compound 0.01 µM),relative viability (Ispinesib + Dasatinib; first compound 0.03162 µM),relative viability (Ispinesib + Dasatinib; first compound 0.1 µM),relative viability (Ispinesib + Olaparib; first compound 0.001 µM),relative viability (Ispinesib + Olaparib; first compound 0.003162 µM),relative viability (Ispinesib + Olaparib; first compound 0.01 µM),relative viability (Ispinesib + Olaparib; first compound 0.03162 µM),relative viability (Ispinesib + Olaparib; first compound 0.1 µM),relative viability (Ispinesib + Trametinib; first compound 0.001 µM),relative viability (Ispinesib + Trametinib; first compound 0.003162 µM),relative viability (Ispinesib + Trametinib; first compound 0.01 µM),relative viability (Ispinesib + Trametinib; first compound 0.03162 µM),relative viability (Ispinesib + Trametinib; first compound 0.1 µM),relative viability (Linsitinib + OSI-027; first compound 0.01 µM),relative viability (Linsitinib + OSI-027; first compound 0.03162 µM),relative viability (Linsitinib + OSI-027; first compound 0.1 µM),relative viability (Linsitinib + OSI-027; first compound 0.3162 µM),relative viability (Linsitinib + OSI-027; first compound 1 µM)
HCC-366,0.701,0.74,0.733,0.704,0.0265,0.355,0.434,0.372,0.476,0.0931,0.386,0.428,0.403,0.411,0.0793,1.03,0.999,0.888,0.821,0.235
HCC-827,0.36,0.318,0.317,0.292,0.263,0.652,0.672,0.67,0.686,0.601,0.595,0.516,0.542,0.57,0.59,0.769,0.836,0.821,–,0.771
HOP-62,0.815,0.824,0.837,0.534,0.251,0.62,0.215,0.341,0.312,0.186,0.349,0.373,0.406,0.441,0.42,0.877,0.866,0.96,–,0.544
IA-LM,–,–,–,–,–,0.916,0.938,1.15,1.02,0.155,–,–,–,–,–,–,–,–,–,–
LC-2-ad,0.566,0.716,0.737,0.318,0.133,0.728,0.728,0.711,0.816,0.293,0.934,0.944,0.92,0.9,0.474,0.803,0.827,0.684,0.414,0.422
LCLC-97TM1,0.86,0.825,1.03,0.631,0.221,0.396,0.544,0.406,0.318,0.216,0.219,0.238,0.219,0.169,0.137,0.52,0.515,0.335,0.248,0.234
LCLC-103H,0.553,0.506,0.602,0.302,0.244,0.8,0.888,0.856,0.746,0.775,0.724,0.7,0.723,0.667,0.654,0.44,0.475,0.42,0.356,0.367
LK-2,0.227,0.331,0.299,0.26,0.199,0.795,0.814,0.698,0.632,0.329,0.742,0.819,0.801,0.751,0.516,0.243,0.242,0.154,0.167,0.168
LOU-NH91,0.591,0.608,0.592,0.519,0.206,0.929,0.915,0.969,0.906,0.369,0.772,0.774,0.814,0.725,0.309,0.714,0.704,0.7,0.712,0.527
LU99A,0.676,0.519,0.558,0.363,0.203,0.249,0.264,0.235,0.234,0.245,0.514,0.579,0.577,0.335,0.352,0.32,0.314,0.299,0.245,0.24
LXF-289,0.308,0.215,0.197,0.209,0.0629,1.07,1.21,1.44,1.05,0.95,0.667,0.729,0.762,0.629,0.606,0.769,0.757,0.795,–,0.515
NCI-H23,0.857,1.02,0.885,0.653,0.188,0.306,0.379,0.336,0.384,0.175,0.372,0.472,0.32,0.358,0.208,0.722,0.64,0.606,0.206,0.251
NCI-H322M,0.271,0.244,0.233,0.252,0.288,0.804,0.81,0.855,0.786,0.549,0.529,0.586,0.449,0.514,0.467,0.547,0.47,0.531,0.361,0.384
NCI-H358,0.162,0.144,0.163,0.131,0.0677,0.624,0.671,0.761,0.569,0.214,0.126,0.131,0.128,0.115,0.106,0.781,0.928,0.68,0.421,0.246
NCI-H441,0.713,0.634,0.453,0.293,0.266,0.529,0.516,0.631,0.237,0.247,0.47,0.458,0.284,0.255,0.212,0.672,0.616,0.546,0.307,0.312
NCI-H1299,–,–,–,–,–,1.02,0.993,1.07,0.986,0.478,–,–,–,–,–,–,–,–,–,–
NCI-H1563,0.395,0.483,0.469,0.417,0.378,–,–,–,–,–,–,–,–,–,–,0.695,0.786,0.714,0.87,0.63
NCI-H1623,0.63,0.63,0.523,0.461,0.468,–,–,–,–,–,–,–,–,–,–,0.408,0.432,0.398,–,0.285
NCI-H1648,–,–,–,–,–,1.04,1.07,0.751,0.889,0.0854,0.47,0.559,0.479,0.583,0.496,0.26,0.265,0.264,–,0.245
NCI-H1703,–,–,–,–,–,0.601,0.312,0.246,0.127,0.105,–,–,–,–,–,–,–,–,–,–
